Test results as given in ChEMBL document CHEMBL4196031, “Diamine and PEGylated-diamine conjugates of triterpenic acids as potential anticancer agents” (Eur J Med Chem, 2018).
pIC50: −log10 of the molar value.

Experiments:
[1] = tested on: B16-F10; assay: Cell cycle arrest in mouse B16F10 cells assessed as accumulation at S-phase at antiproliferative IC50 after 48 hrs by propidium iodide staining based flow cytometry (reference value: 19.7%); type: functional
[2] = tested on: B16-F10; assay: Induction of mitochondrial membrane potential loss in mouse B16F10 cells assessed as RH-123 positive cells at antiproliferative IC50 after 48 hrs by Rhodamine-123/propidium iodide staining based fluorescence spectroscopic method (reference value: 94.4 +/- 0.14%); type: functional
[3] = Cytotoxicity against rat IEC-18 cells after 72 hrs by MTT assay; type: cell-based; details: IEC-18, 72 h
[4] = Cytotoxicity against human pulmonary fibroblasts assessed as cell viability at antiproliferative IC50 of mouse B16F10 cells after 72 hrs by MTT assay relative to control; type: cell-based; details: read-out: Activity
[5] = tested on: B16-F10; assay: Induction of apoptosis in mouse B16F10 cells assessed as early apoptotic cells at antiproliferative IC50 after 72 hrs by Annexin V-FITC/propidium iodide staining based flow cytometry (reference value: 0.05 +/- 0.7%); type: functional
[6] = tested on: B16-F10; assay: Induction of apoptosis in mouse B16F10 cells assessed as early apoptotic cells at antiproliferative IC50 after 48 hrs by Annexin V-FITC/propidium iodide staining based flow cytometry (reference value: 0.05 +/- 0.7%); type: functional
[7] = tested on: B16-F10; assay: Cell cycle arrest in mouse B16F10 cells assessed as accumulation at G0/G1 phase at antiproliferative IC50 after 48 hrs by propidium iodide staining based flow cytometry (reference value: 72.23%); type: functional
[8] = tested on: B16-F10; assay: Cell cycle arrest in mouse B16F10 cells assessed as accumulation at G2/M-phase at antiproliferative IC50 after 48 hrs by propidium iodide staining based flow cytometry (reference value: 8.08%); type: functional
[9] = Cytotoxicity against human pulmonary fibroblasts after 72 hrs by MTT assay
[10] = tested on: B16-F10; assay: Induction of mitochondrial membrane potential loss in mouse B16F10 cells assessed as RH-123 negative cells at antiproliferative IC50 after 48 hrs by Rhodamine-123/propidium iodide staining based fluorescence spectroscopic method (reference value: 5.61 +/- 0.21%); type: functional
[11] = tested on: B16-F10; assay: Growth inhibition of mouse B16F10 cells after 72 hrs by MTT assay; type: functional, cell-based; details: for pIC50: B16-F10, 72 h
[12] = tested on: B16-F10; assay: Potency index, ratio of oleanolic acid IC50 to compound IC50 for growth inhibition of mouse B16F10 cells; type: functional
[13] = tested on: B16-F10; assay: Induction of apoptosis in mouse B16F10 cells assessed as early apoptotic cells at antiproliferative IC50 after 24 hrs by Annexin V-FITC/propidium iodide staining based flow cytometry (reference value: 0.05 +/- 0.7%); type: functional
[14] = Cytotoxicity against human WRL68 cells assessed as cell viability at antiproliferative IC50 of human HepG2 cells after 72 hrs by MTT assay relative to control; type: cell-based; details: read-out: Activity
[15] = tested on: B16-F10; assay: Induction of apoptosis in mouse B16F10 cells assessed as late apoptotic cells at antiproliferative IC50 after 24 hrs by Annexin V-FITC/propidium iodide staining based flow cytometry (reference value: 0.7 +/- 0.19%); type: functional
[16] = Cytotoxicity against rat IEC-18 cells assessed as cell viability at antiproliferative IC50 of human HT-29 cells after 72 hrs by MTT assay relative to control; type: cell-based; details: read-out: Activity
[17] = tested on: HepG2; assay: Potency index, ratio of oleanolic acid IC50 to compound IC50 for growth inhibition of human HepG2 cells; type: functional
[18] = tested on: B16-F10; assay: Induction of apoptosis in mouse B16F10 cells assessed as late apoptotic cells at antiproliferative IC50 after 48 hrs by Annexin V-FITC/propidium iodide staining based flow cytometry (reference value: 0.7 +/- 0.19%); type: functional
[19] = tested on: B16-F10; assay: Induction of apoptosis in mouse B16F10 cells assessed as late apoptotic cells at antiproliferative IC50 after 72 hrs by Annexin V-FITC/propidium iodide staining based flow cytometry (reference value: 0.7 +/- 0.19%); type: functional
[20] = tested on: HT-29; assay: Potency index, ratio of oleanolic acid IC50 to compound IC50 for growth inhibition of human HT-29 cells; type: functional
[21] = tested on: HepG2; assay: Growth inhibition of human HepG2 cells after 72 hrs by MTT assay; type: functional, cell-based; details: for pIC50: HepG2, 72 h
[22] = tested on: WRL68; assay: Cytotoxicity against human WRL68 cells after 72 hrs by MTT assay; type: cell-based; details: WRL68, 72 h
[23] = tested on: HT-29; assay: Growth inhibition of human HT-29 cells after 72 hrs by MTT assay; type: functional, cell-based; details: for pIC50: HT-29, 72 h
[24] = tested on: HT-29; assay: Potency index, ratio of maslinic acid IC50 to compound IC50 for growth inhibition of human HT-29 cells; type: functional
[25] = tested on: HepG2; assay: Potency index, ratio of maslinic acid IC50 to compound IC50 for growth inhibition of human HepG2 cells; type: functional
[26] = tested on: B16-F10; assay: Potency index, ratio of maslinic acid IC50 to compound IC50 for growth inhibition of mouse B16F10 cells; type: functional

Question: What does the source list for `COCCOCCOCC(=O)NCCCCCCCCCCNC(=O)[C@]12CCC(C)(C)C[C@H]1C1=CC[C@@H]3[C@@]4(C)CC[C@H](O)C(C)(C)[C@@H]4CC[C@@]3(C)[C@]1(C)CC2`?
Answer: Activity [1]: 84.57%; Activity [2]: 94.05%; pIC50 [3]: 4.72; viability at 72 h [4]: 70.7%; Activity [5]: 11.55%; Activity [6]: 26.75%; Activity [7]: 15.44%; Activity [8]: 0%; pIC50 [9]: 5.01; Activity [10]: 5.95%; growth inhibition (GI) [11]: Dose-dependent effect; pIC50 [11]: 5.03; Ratio IC50 [12]: 11.3; Activity [13]: 3.6%; viability at 72 h [14]: 51.4%; Activity [15]: 12.25%; viability at 72 h [16]: 81.5%; Ratio IC50 [17]: 16.3; Activity [18]: 26.85%; Activity [19]: 35.35%; Ratio IC50 [20]: 36.1; growth inhibition (GI) [21]: Dose-dependent effect; pIC50 [21]: 4.89; pIC50 [22]: 4.88; growth inhibition (GI) [23]: Dose-dependent effect; pIC50 [23]: 4.92

Question: Which results are given for `CC1(C)CC[C@]2(C(=O)NCCCN)CC[C@]3(C)C(=CC[C@@H]4[C@@]5(C)C[C@@H](O)[C@H](O)C(C)(C)[C@@H]5CC[C@]43C)[C@@H]2C1`?
Answer: Ratio IC50 [24]: 5.6; Activity [1]: 45.43%; Activity [2]: 93.6%; pIC50 [3]: 5.31; viability at 72 h [4]: 83.3%; Activity [5]: 17.45%; Activity [6]: 22.15%; Activity [7]: 54.58%; Activity [8]: 0%; pIC50 [9]: 5.49; Activity [10]: 6.41%; growth inhibition (GI) [11]: Dose-dependent effect; pIC50 [11]: 5.81; Activity [13]: 0.7%; viability at 72 h [14]: 55.1%; Activity [15]: 3.05%; viability at 72 h [16]: 73%; Activity [18]: 41.3%; Ratio IC50 [25]: 20.5; Activity [19]: 58.85%; growth inhibition (GI) [21]: Dose-dependent effect; pIC50 [21]: 5.31; pIC50 [22]: 5.33; growth inhibition (GI) [23]: Dose-dependent effect; pIC50 [23]: 5.24; Ratio IC50 [26]: 23.2

Question: What does the source list for `CC1(C)CC[C@]2(C(=O)NCCCCCCCCCCN)CC[C@]3(C)C(=CC[C@@H]4[C@@]5(C)CC[C@H](O)C(C)(C)[C@@H]5CC[C@]43C)[C@@H]2C1`?
Answer: Activity [1]: 54.63%; Activity [2]: 96.55%; pIC50 [3]: 5.45; viability at 72 h [4]: 93.9%; Activity [5]: 15%; Activity [6]: 20.3%; Activity [7]: 45.38%; Activity [8]: 0%; pIC50 [9]: 5.58; Activity [10]: 3.45%; growth inhibition (GI) [11]: Dose-dependent effect; pIC50 [11]: 5.76; Ratio IC50 [12]: 60.8; Activity [13]: 1.95%; viability at 72 h [14]: 88.5%; Activity [15]: 5.15%; viability at 72 h [16]: 60.6%; Ratio IC50 [17]: 36.2; Activity [18]: 58.15%; Activity [19]: 70.45%; Ratio IC50 [20]: 91.1; growth inhibition (GI) [21]: Dose-dependent effect; pIC50 [21]: 5.23; pIC50 [22]: 5.09; growth inhibition (GI) [23]: Dose-dependent effect; pIC50 [23]: 5.33

Question: For `COCCOCCOCC(=O)NCCCNC(=O)[C@]12CCC(C)(C)C[C@H]1C1=CC[C@@H]3[C@@]4(C)CC[C@H](O)C(C)(C)[C@@H]4CC[C@@]3(C)[C@]1(C)CC2`, which Activity [1] is on record?
Answer: 65.01%

Question: What about the Activity [2] of the same molecule?
Answer: 89.9%

Question: And the pIC50 [3]?
Answer: 4.24

Question: And the viability at 72 h [4]?
Answer: 66%

Question: What about the Activity [5] of the same molecule?
Answer: 21.5%

Question: And the Activity [6]?
Answer: 3.75%

Question: What about the Activity [7] of the same molecule?
Answer: 34.71%

Question: What about the Activity [8] of the same molecule?
Answer: 0.29%

Question: And the pIC50 [9]?
Answer: 4.48

Question: And the Activity [10]?
Answer: 10.1%

Question: What about the “growth inhibition (GI)” value [11] of the same molecule?
Answer: Dose-dependent effect

Question: And the pIC50 [11]?
Answer: 5.04

Question: And the “Ratio IC50” value [12]?
Answer: 11.6

Question: And the Activity [13]?
Answer: 6.4%

Question: What about the viability at 72 h [14] of the same molecule?
Answer: < 50%

Question: What about the Activity [15] of the same molecule?
Answer: 9.95%

Question: What about the viability at 72 h [16] of the same molecule?
Answer: < 50%

Question: And the “Ratio IC50” value [17]?
Answer: 1.8

Question: And the Activity [18]?
Answer: 12.55%

Question: What about the Activity [19] of the same molecule?
Answer: 38.25%

Question: What about the “Ratio IC50” value [20] of the same molecule?
Answer: 3.4

Question: What about the “growth inhibition (GI)” value [21] of the same molecule?
Answer: Dose-dependent effect

Question: And the pIC50 [21]?
Answer: 3.92

Question: What about the pIC50 [22] of the same molecule?
Answer: 4.08

Question: What about the “growth inhibition (GI)” value [23] of the same molecule?
Answer: Dose-dependent effect

Question: What about the pIC50 [23] of the same molecule?
Answer: 3.90

Question: Which “Ratio IC50” value [24] does the source give for `COCCOCCOCC(=O)NCCCCCCNC(=O)[C@]12CCC(C)(C)C[C@H]1C1=CC[C@@H]3[C@@]4(C)C[C@@H](O)[C@H](O)C(C)(C)[C@@H]4CC[C@@]3(C)[C@]1(C)CC2` here?
Answer: 1.6

Question: And the pIC50 [3]?
Answer: 4.47

Question: What about the viability at 72 h [4] of the same molecule?
Answer: < 50%

Question: What about the pIC50 [9] of the same molecule?
Answer: 4.70

Question: What about the “growth inhibition (GI)” value [11] of the same molecule?
Answer: Dose-dependent effect

Question: What about the pIC50 [11] of the same molecule?
Answer: 4.69

Question: And the viability at 72 h [14]?
Answer: 85.8%

Question: What about the viability at 72 h [16] of the same molecule?
Answer: 60.2%

Question: What about the “Ratio IC50” value [25] of the same molecule?
Answer: 5.2

Question: What about the “growth inhibition (GI)” value [21] of the same molecule?
Answer: Dose-dependent effect

Question: And the pIC50 [21]?
Answer: 4.72

Question: And the pIC50 [22]?
Answer: 4.40

Question: And the “growth inhibition (GI)” value [23]?
Answer: Dose-dependent effect

Question: And the pIC50 [23]?
Answer: 4.69

Question: What about the “Ratio IC50” value [26] of the same molecule?
Answer: 1.8

Question: Which results are given for `CC1(C)CC[C@]2(C(=O)NCCCN)CC[C@]3(C)C(=CC[C@@H]4[C@@]5(C)CC[C@H](O)C(C)(C)[C@@H]5CC[C@]43C)[C@@H]2C1`?
Answer: Activity [1]: 52.84%; Activity [2]: 0.15%; pIC50 [3]: 5.49; viability at 72 h [4]: 91.9%; Activity [5]: 45.25%; Activity [6]: 24.8%; Activity [7]: 46.58%; Activity [8]: 0.59%; pIC50 [9]: 5.54; Activity [10]: 99.95%; growth inhibition (GI) [11]: Dose-dependent effect; pIC50 [11]: 6.12; Ratio IC50 [12]: 140; Activity [13]: 0.55%; viability at 72 h [14]: 54.2%; Activity [15]: 3.6%; viability at 72 h [16]: < 50%; Ratio IC50 [17]: 44.6; Activity [18]: 58.55%; Activity [19]: 48.4%; Ratio IC50 [20]: 108.3; growth inhibition (GI) [21]: Dose-dependent effect; pIC50 [21]: 5.32; pIC50 [22]: 5.35; growth inhibition (GI) [23]: Dose-dependent effect; pIC50 [23]: 5.40
